Experimental data taken from patent US11958861B2, “Spirocyclic lactams as JAK2 V617F inhibitors” (Incyte Corporation, priority 2021, dated 2024).
Counter-ions that a name gives are not always drawn.

Key:
[1] = target: T1, pseudo-kinase domain (JH2, amino-acids 536-812) of human V617F mutant JAK2 (Homo sapiens, UniProt O60674, F794H/V617F/W659A/W777A); assay: JAK2 LanthaScreen JH2-V617F Binding Assay; settings: 1 hour at 25° C.
T1 construct: pseudo-kinase domain (JH2, amino-acids 536-812 with 3 surface mutations W659A, W777A, F794H); purchased BPS Bioscience 79498; host or cells: baculovirus expression system
T1 sequence (O60674 536-812 V617F/W659A/W777A/F794H): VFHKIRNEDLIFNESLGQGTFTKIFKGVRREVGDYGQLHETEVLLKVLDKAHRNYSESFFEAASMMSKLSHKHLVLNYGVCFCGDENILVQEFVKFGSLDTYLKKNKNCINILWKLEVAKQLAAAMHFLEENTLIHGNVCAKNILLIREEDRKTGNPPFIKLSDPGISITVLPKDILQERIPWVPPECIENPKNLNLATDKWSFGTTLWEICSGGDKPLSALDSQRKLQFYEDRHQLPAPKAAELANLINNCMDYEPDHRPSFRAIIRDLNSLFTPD
Description: Example C. JAK2 LanthaScreen JH2-V617F Binding Assay
(§1) JAK2 JH2-V617F binding assay utilizes pseudo-kinase domain (JH2, amino-acids 536-812 with 3 surface mutations W659A, W777A, F794H) of human V617F mutant JAK2 expressed as C-terminal His-Avi-tagged, biotinylated protein in a baculovirus expression system (BPS Bioscience, Catalog #79498). The assay was conducted in black 384-well polystyrene plates in a final reaction volume of 20 μL. JAK2 JH2-V617F (0.26 nM) was incubated with compounds (100 nL serially diluted in DMSO) in the presence of 50 nM Fluorescent JAK2-JH2 Tracer (MedChem Express Catalog #HY-102055) and 0.25 nM Streptavidin-Tb cryptate (Cisbio Part #610SATLB) in assay buffer (50 mM Tris, pH=7.5, 10 mM MgCl2, 0.01% Brij-35, 0.1% BSA, 1 mM EGTA, 5% Glycerol and 5 mM DTT). Non-specific binding was accessed in the presence of 2 mM ATP. After incubation for 1 hour at 25° C., LanthaScreen signals were read on a PHERAstar FS plate reader (BMG LABTECH). Data was analyzed with IDBS XLfit and GraphPad Prism 5.0 software using a four parameter dose response curve to determine IC50 for each compound.

[2] = target: T2, pseudo-kinase domain (JH2, amino-acids 536-812) of human Wild Type JAK2 (Homo sapiens, UniProt O60674, F794H/W659A/W777A); assay: JAK2 LanthaScreen JH2-WT Binding Assay; settings: 1 hour at 25° C.
T2 construct: pseudo-kinase domain (JH2, amino-acids 536-812 with 3 surface mutations W659A, W777A, F794H); purchased BPS Bioscience 79463; host or cells: baculovirus expression system
T2 sequence (O60674 536-812 W659A/W777A/F794H): as the sequence (O60674 536-812 V617F/W659A/W777A/F794H) above, with F82V counted along it
Description: Example B. JAK2 LanthaScreen JH2-WT Binding Assay
as §1, with “JH2-WT” for “JH2-V617F”, “Wild Type” for “V617F mutant”, “#79463).” for “#79498).”, “JH2-WT (0.145” for “JH2-V617F (0.26”

[3] = target: T3, catalytic domain (JH1, amino acids 826-1132) of human JAK2 (Homo sapiens, UniProt O60674); assay: JAK2 LanthaScreen JH1 Binding Assay; settings: 2 hours at 25° C.
T3 construct: catalytic domain (JH1, amino acids 826-1132) of human JAK2; purchased Carna Biosciences 08-445-20N; host or cells: baculovirus expression system
T3 sequence (O60674 826-1132): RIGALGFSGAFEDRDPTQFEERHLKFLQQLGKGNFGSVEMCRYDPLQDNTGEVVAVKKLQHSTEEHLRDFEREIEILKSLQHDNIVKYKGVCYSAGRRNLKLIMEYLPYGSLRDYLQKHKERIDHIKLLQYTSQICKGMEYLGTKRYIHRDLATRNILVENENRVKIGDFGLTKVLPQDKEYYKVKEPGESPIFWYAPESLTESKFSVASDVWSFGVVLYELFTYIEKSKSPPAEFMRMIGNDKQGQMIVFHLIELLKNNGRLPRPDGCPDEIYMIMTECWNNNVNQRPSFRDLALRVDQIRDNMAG
Description: Example A. JAK2 LanthaScreen JH1 Binding Assay
JAK2 JH1 binding assay utilizes catalytic domain (JH1, amino acids 826-1132) of human JAK2 expressed as N-terminal FLAG-tagged, biotinylated protein in a baculovirus expression system (Carna Biosciences, Product #08-445-20N). The assay was conducted in black 384-well polystyrene plates in a final reaction volume of 20 μL. JAK2 JH1 (1.5 nM) was incubated with compounds (100 nL serially diluted in DMSO) in the presence of 50 nM Fluorescent JAK2-JH1 Tracer and 0.5 nM Streptavidin-Tb cryptate (Cisbio Part #610SATLB) in assay buffer (50 mM Tris, pH=7.5, 10 mM MgCl2, 0.01% Brij-35, 0.1% BSA, 1 mM EGTA, 5% Glycerol and 5 mM DTT). Non-specific binding was accessed in the presence of 2 mM ATP. After incubation for 2 hours at 25° C., LanthaScreen signals were read on a PHERAstar FS plate reader (BMG LABTECH). Data was analyzed with IDBS XLfit and GraphPad Prism 5.0 software using a four parameter dose response curve to determine IC50 for each compound.

[4] = target: T4, catalytic domain (JH1, amino acids 808-1132) of human JAK2 (Homo sapiens, UniProt O60674); assay: JAK2 HTRF Enzyme Activity Assay; type: biochemical; settings: ATP 30 μM, read-out: ENZ 30UMATP
T4 construct: catalytic domain (JH1, amino acids 808-1132) of human JAK2; His (N); purchased BPS Bioscience 40450; host or cells: baculovirus expression system
T4 sequence (O60674 808-1132): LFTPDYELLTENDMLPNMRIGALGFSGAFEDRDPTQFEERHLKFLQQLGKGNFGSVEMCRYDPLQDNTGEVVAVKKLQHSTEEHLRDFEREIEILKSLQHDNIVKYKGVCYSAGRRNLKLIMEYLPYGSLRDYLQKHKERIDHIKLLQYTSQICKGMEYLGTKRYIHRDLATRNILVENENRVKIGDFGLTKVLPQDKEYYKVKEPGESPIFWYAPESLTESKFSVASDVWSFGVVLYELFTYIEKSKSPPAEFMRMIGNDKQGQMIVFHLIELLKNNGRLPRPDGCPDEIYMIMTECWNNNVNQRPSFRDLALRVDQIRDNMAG
Description: Example D. JAK2 HTRF Enzyme Activity Assay
JAK2 enzyme activity assays utilize catalytic domain (JH1, amino acids 808-1132) of human JAK2 expressed as N-terminal His-tagged protein in a baculovirus expression system (BPS Bioscience, Catalog #40450). The assays was conducted in black 384-well polystyrene plates in a final reaction volume of 20 μL. JAK2 (0.015 nM) was incubated with compounds (100 nL serially diluted in DMSO) in the presence of ATP (30 μM or 1 mM) and 500 nM Biotin-labeled […] (SEQ ID NO.: 1) peptide (BioSource International, custom synthesis) in assay buffer (50 mM Tris, pH=7.5, 10 mM MgCl2, 0.01% Brij-35, 0.1% BSA, 1 mM EGTA, 5% Glycerol and 5 mM DTT) for 60 minutes at 25° C. The reactions were stopped by the addition of 10 μL of detection buffer (50 mM Tris, pH 7.8, 0.5 mg/mL BSA, 150 mM NaCl), supplemented with EDTA, LANCE Eu-W1024 anti-phosphotyrosine (PY20), (PerkinElmer, Catalog #AD0067) and Streptavidin SureLight APC (PerkinElmer Catalog #CR130-100), for a final concentration of 15 mM, 1.5 nM and 75 nM, respectively. HTRF signals were read after 30 minutes incubation at room temperature on a PHERAstar FS plate reader (BMG LABTECH). Data was analyzed with IDBS XLfit and GraphPad Prism 5.0 software using a four parameter dose response curve to determine IC50 for each compound.

| Structure (SMILES) | IC50 [1] [nM] | IC50 [2] [nM] | IC50 [3] [nM] | IC50 [4] [nM] |
| --- | --- | --- | --- | --- |
| CN1C(=O)C2(CCN(C(C(N)=O)c3ccc(F)cc3)CC2)c2c1cnc1[nH]c(-c3cnn(C)c3)c(-c3ccccc3)c21 (racemic) [Example 26, 2-(4-Fluorophenyl)-2-(6-methyl-2-(1-methyl-1H-pyrazol-4-yl)-7-oxo-1-phenyl-6,7-dihydro-3H-spiro[dipyrrolo[2,3-b:3′,2′-d]pyridine-8,4′-piperidin]-1′-yl)acetamide, trifluoroacetate salt] | ≤ 100 | ≤ 100 | 100 to 500 | ≤ 100 |
| CN1C(=O)C2(CCN(C3(CC#N)CCC3)CC2)c2c1cnc1[nH]c(C3=CCC(C(=O)N4CCOCC4)CC3)c(-c3ccc4c(cnn4C)c3)c21 (racemic) [Example 34, 2-(1-(6-Methyl-1-(1-methyl-1H-indazol-5-yl)-2-(4-(morpholine-4-carbonyl)cyclohex-1-en-1-yl)-7-oxo-6,7-dihydro-3H-spiro[dipyrrolo[2,3-b:3′,2′-d]pyridine-8,4′-piperidin]-1′-yl)cyclobutyl)acetonitrile, trifluoroacetate salt] | ≤ 100 | ≤ 100 | 500 to 1250 | 500 to 1250 |
| CN1C(=O)C2(CCN(C3(CC#N)CCC3)CC2)c2c1cnc1[nH]c(-c3cnn(C4CCOC4)c3)c(-c3ccc4c(cnn4C)c3)c21 (racemic) [Example 45, 2-(1-(6-Methyl-1-(1-methyl-1H-indazol-5-yl)-7-oxo-2-(1-(tetrahydrofuran-3-yl)-1H-pyrazol-4-yl)-6,7-dihydro-3H-spiro[dipyrrolo[2,3-b:3′,2′-d]pyridine-8,4′-piperidin]-1′-yl)cyclobutyl)acetonitrile, trifluoroacetate salt] | ≤ 100 | ≤ 100 | 100 to 500 | ≤ 100 |
| CN1C(=O)[C@]2(CC[C@@H](NS(=O)(=O)C3CC3)C2)c2c1cnc1[nH]c(-c3cnn(C)c3)c(-c3ccc4c(cnn4C)c3)c21 (racemic) [Example 55, trifluoroacetate salt] | ≤ 100 | ≤ 100 | 1250 to 2500 | 500 to 1250 |
| [2H]C([2H])([2H])n1ncc2cc(-c3c(-c4cnn(C)c4)[nH]c4ncc5c(c34)[C@@]3(CC[C@H](NS(=O)(=O)C4CC4)C3)C(=O)N5C)ccc21 (racemic) [Example 56, trifluoroacetate salt] | ≤ 100 | ≤ 100 | 1250 to 2500 | 1250 to 2500 |
| CCCC(=O)N1CCC2(CC1)CC1(C2)C(=O)N(C)c2cnc3[nH]c(C4=CCC(C(=O)N(C)C)CC4)c(-c4ccc5c(cnn5C)c4)c3c21 (racemic) [Example 63, 4-(1″-Butyryl-6-methyl-1-(1-methyl-1H-indazol-5-yl)-7-oxo-6,7-dihydro-3H-dispiro[dipyrrolo[2,3-b:3′,2′-d]pyridine-8,1′-cyclobutane-3′,4″-piperidin]-2-yl)-N,N-dimethylcyclohex-3-ene-1-carboxamide, trifluoroacetate salt] | ≤ 100 | ≤ 100 | > 2500 | > 2500 |
| CN1C(=O)C2(CCN(CC3(CC#N)CC3)C2)c2c1cnc1[nH]c(-c3ccc4c(c3)OCC(=O)N4)c(-c3ccc4c(cnn4C)c3)c21 (racemic) [Example 67, 2-(1-((6-Methyl-1-(1-methyl-1H-indazol-5-yl)-7-oxo-2-(3-oxo-3,4-dihydro-2H-benzo[b][1,4]oxazin-7-yl)-6,7-dihydro-3H-spiro[dipyrrolo[2,3-b:3′,2′-d]pyridine-8,3′-pyrrolidin]-1′-yl)methyl)cyclopropyl)acetonitrile, trifluoroacetate salt] | ≤ 100 | ≤ 100 | > 2500 | > 2500 |
| CN1C(=O)C2(CCN(CC3(CC#N)CC3)C2)c2c1cnc1[nH]c(-c3cnn4cccnc34)c(-c3ccc4c(cnn4C)c3)c21 (racemic) [Example 68, 2-(1-((6-Methyl-1-(1-methyl-1H-indazol-5-yl)-7-oxo-2-(pyrazolo[1,5-a]pyrimidin-3-yl)-6,7-dihydro-3H-spiro[dipyrrolo[2,3-b:3′,2′-d]pyridine-8,3′-pyrrolidin]-1′-yl)methyl)cyclopropyl)acetonitrile, trifluoroacetate salt] | ≤ 100 | ≤ 100 | > 2500 | > 2500 |
| CN1C(=O)C2(CCN(CC3(CC#N)CC3)C2)c2c1cnc1[nH]c(-c3cnn(Cc4ccc(C#N)cc4)c3)c(-c3ccc4c(cnn4C)c3)c21 (racemic) [Example 69, 4-((4-(1′-((1-(Cyanomethyl)cyclopropyl)methyl)-6-methyl-1-(1-methyl-1H-indazol-5-yl)-7-oxo-6,7-dihydro-3H-spiro[dipyrrolo[2,3-b:3′,2′-d]pyridine-8,3′-pyrrolidin]-2-yl)-1H-pyrazol-1-yl)methyl)benzonitrile, trifluoroacetate salt] | ≤ 100 | ≤ 100 | 500 to 1250 | 500 to 1250 |
| CN1C(=O)C2(CCN(CC3(CC#N)CC4(CCC4)C3)C2)c2c1cnc1[nH]c(-c3cnn(C)c3)c(-c3ccc4c(cnn4C)c3)c21 (racemic) [Example 70, 2-(2-((6-Methyl-1-(1-methyl-1H-indazol-5-yl)-2-(1-methyl-1H-pyrazol-4-yl)-7-oxo-6,7-dihydro-3H-spiro[dipyrrolo[2,3-b:3′,2′-d]pyridine-8,3′-pyrrolidin]-1′-yl)methyl)spiro[3.3]heptan-2-yl)acetonitrile] | ≤ 100 | ≤ 100 | > 2500 | > 2500 |
